In patent US8178690B2, “Compounds and methods for inhibiting the interaction of BCL proteins with binding partners” (Infinity Pharmaceuticals, Inc., priority 2006, dated 2012):
Values belong to the compound of their own block, whether it stands above or below them.

What was measured:
Bcl-2 = Bcl-2 (Homo sapiens, UniProt P10415); assay: Bcl-2 binding affinity analysis (fluorescence polarization binding assay); conditions: read-out: BcI2 (Ki, Bcl-2 binding affinity)
Source text: (§1) Bcl-2 and Bcl-xL binding may be determined using a variety of known methods. One such assay is a sensitive and quantitative in vitro binding assay using fluorescence polarization (FP) described by Wang, J.-L.; Zhang, Z-J.; Choksi, S.; Sjam. S.; Lu, Z.; Croce, C. M.; Alnemri, E. S.; Komgold, R.; Huang, Z. Cell permeable Bcl-2 binding peptides: a chemical approach to apoptosis induction in tumor cells. Cancer Res. 2000, 60, 1498-1502).
(§2) Bcl-2 and Bcl-xL binding affinity analysis data is presented below for various compounds of the invention.

Bcl-xL = Bcl-xL (Homo sapiens, UniProt Q07817); assay: Bcl-xL binding affinity analysis (fluorescence polarization binding assay); conditions: read-out: BcI-XI (Ki, Bcl-xL binding affinity)
Bcl-xL, sequence (Q07817 whole entry): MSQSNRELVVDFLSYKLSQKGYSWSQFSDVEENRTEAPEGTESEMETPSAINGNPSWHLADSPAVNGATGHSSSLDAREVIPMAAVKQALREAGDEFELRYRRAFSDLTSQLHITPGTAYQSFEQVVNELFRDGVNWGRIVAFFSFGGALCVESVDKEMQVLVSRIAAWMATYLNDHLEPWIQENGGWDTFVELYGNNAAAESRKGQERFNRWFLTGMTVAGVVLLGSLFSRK
Source text: as §1, §2

Bcl-2, sequence (P10415 whole entry): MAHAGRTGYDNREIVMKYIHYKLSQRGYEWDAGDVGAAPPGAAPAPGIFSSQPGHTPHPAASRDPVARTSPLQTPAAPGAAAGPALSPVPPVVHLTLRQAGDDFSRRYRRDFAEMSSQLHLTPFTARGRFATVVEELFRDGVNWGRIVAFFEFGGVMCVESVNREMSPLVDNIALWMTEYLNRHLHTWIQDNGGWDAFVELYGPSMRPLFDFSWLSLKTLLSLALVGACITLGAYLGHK

Compound: COc1c(CN2O[C@@H](CO)[C@@H]([C@H](C)O)[C@H]2C(=O)N[C@H]2C[C@H]3C[C@@H]([C@@H]2C)C3(C)C)cccc1-c1cc2c(c(C(=O)N[C@H](CN(C)C)CC(C)(C)C)c1)OC(C)(C)C2 [Compound 196]
Ki (Bcl-2): < 1 nM
Ki (Bcl-xL): < 1000 nM

Compound: COc1c(CN2O[C@@H](CO)[C@@H]([C@H](C)O)[C@H]2C(=O)N[C@H]2C[C@H]3C[C@@H]([C@@H]2C)C3(C)C)cccc1-c1cc2c(c(C(=O)N[C@H](CN(C)C)CC(C)(C)C)c1)OCO2 [Compound 202]
Ki (Bcl-2): < 1 nM
Ki (Bcl-xL): < 1000 nM

Compound: COc1c(CN2O[C@@H](CO)[C@@H]([C@H](C)O)[C@H]2C(=O)N[C@H]2C[C@H]3C[C@@H]([C@@H]2C)C3(C)C)cccc1-c1cc(C(=O)N[C@@H](Cc2cccc(N)c2)CN(C)C)cc(N(C)C)c1 [Compound 206]
Ki (Bcl-2): < 1 nM
Ki (Bcl-xL): < 1000 nM

Compound: COc1c(CN2O[C@@H](CN)[C@@H]([C@H](C)O)[C@H]2C(=O)N[C@H]2C[C@H]3C[C@@H]([C@@H]2C)C3(C)C)cccc1-c1cc(C(=O)N[C@@H]2CCN(C)C2)cc(N(C)C)c1 [Compound 213]
Ki (Bcl-2): < 1 nM
Ki (Bcl-xL): > 10000 nM

Compound: CCOc1c(CN2O[C@@H](CN)[C@@H]([C@H](C)O)[C@H]2C(=O)N[C@H]2C[C@H]3C[C@@H]([C@@H]2C)C3(C)C)cccc1-c1cc(C(=O)N[C@@H](Cc2ccccc2)CN(C)C)cc(N(C)C)c1 [Compound 218]
Ki (Bcl-2): < 1 nM
Ki (Bcl-xL): 1000 to 5000 nM

Compound: C[C@@H]1[C@@H](NC(=O)[C@@H]2[C@H]([C@H](C)O)[C@H](CO)ON2Cc2cccc(-c3cc(C(=O)N[C@@H](Cc4ccccc4)CN(C)C)cc(N(C)C)c3)c2OCCN2CCOCC2)C[C@H]2C[C@@H]1C2(C)C [Compound 230]
Ki (Bcl-2): < 1 nM
Ki (Bcl-xL): < 1000 nM

Compound: COc1c(CN2O[C@@H](CO)[C@@H]([C@H](C)O)[C@H]2C(=O)N[C@H]2C[C@H]3C[C@@H]([C@@H]2C)C3(C)C)cccc1-c1cc(C(=O)N[C@@H](Cc2ccccc2)CN(C)C)cc(N2CCOCC2)c1 [Compound 240]
Ki (Bcl-2): < 1 nM
Ki (Bcl-xL): 1000 to 5000 nM

Compound: COc1c(CN2O[C@@H](CO)[C@@H]([C@H](C)O)[C@H]2C(=O)N[C@H]2C[C@H]3C[C@@H]([C@@H]2C)C3(C)C)cccc1-c1cc(C(=O)N2[C@H](CN(C)C)CC[C@@H]2c2ccccc2)cc(N(C)C)c1 [Compound 247]
Ki (Bcl-2): < 1 nM
Ki (Bcl-xL): < 1000 nM

Compound: COc1c(CN2O[C@@H](CO)[C@@H]([C@H](C)O)[C@H]2C(=O)N[C@H]2C[C@H]3C[C@@H]([C@@H]2C)C3(C)C)cccc1-c1cc(C(=O)N[C@@H](Cc2cccs2)CN(C)C)cc(N(C)C)c1 [Compound 251]
Ki (Bcl-2): < 1 nM
Ki (Bcl-xL): < 1000 nM

Compound: COc1c(CN2O[C@@H](CN)[C@@H]([C@H](C)O)[C@H]2C(=O)N[C@H]2C[C@H]3C[C@@H]([C@@H]2C)C3(C)C)cccc1-c1cc(C(=O)N[C@@H](Cc2ccccn2)CN(C)C)cc(N(C)C)c1 [Compound 252]
Ki (Bcl-2): < 1 nM
Ki (Bcl-xL): 1000 to 5000 nM

Compound: COc1c(CN2O[C@@H](CO)[C@@H]([C@H](C)O)[C@H]2C(=O)N[C@H]2C[C@H]3C[C@@H]([C@@H]2C)C3(C)C)cccc1-c1cc(Cl)cc(C(=O)N[C@@H](Cc2ccccc2)CN(C)C)c1 [Compound 255]
Ki (Bcl-2): < 1 nM
Ki (Bcl-xL): < 1000 nM

Compound: COc1c(CN2O[C@@H](CO)[C@@H]([C@H](C)O)[C@H]2C(=O)N[C@H]2C[C@H]3C[C@@H]([C@@H]2C)C3(C)C)cccc1-c1cc2c(c(C(=O)N[C@H](CN(C)C)CC(C)(C)C)c1)OCC2 [Compound 256]
Ki (Bcl-2): < 1 nM
Ki (Bcl-xL): < 1000 nM

Compound: COc1c(CN2O[C@@H](CO)[C@@H]([C@H](C)O)[C@H]2C(=O)N[C@H]2C[C@H]3C[C@@H]([C@@H]2C)C3(C)C)cccc1-c1cc(C(=O)N[C@H](CN(C)C)CC(C)(C)C)c(Br)c(N(C)C)c1 [Compound 257]
Ki (Bcl-2): < 1 nM
Ki (Bcl-xL): < 1000 nM

Compound: CCOc1c(CN2O[C@@H](CO)[C@@H]([C@H](C)O)[C@H]2C(=O)N[C@H]2C[C@H]3C[C@@H]([C@@H]2C)C3(C)C)cccc1-c1cc(C(=O)N[C@H](CC(C)C)CN(C)C)cc(N(C)C)c1 [Compound 259]
Ki (Bcl-2): < 1 nM
Ki (Bcl-xL): 1000 to 5000 nM

Compound: COc1c(CN2O[C@@H](CO)[C@@H]([C@H](C)O)[C@H]2C(=O)N[C@H]2C[C@H]3C[C@@H]([C@@H]2C)C3(C)C)cccc1-c1cc(C(=O)N[C@@H](CC(C)C)C(N)=O)cc(N(C)C)c1 [Compound 260]
Ki (Bcl-2): 1 to 5 nM
Ki (Bcl-xL): < 1000 nM

Compound: COc1c(CN2O[C@@H](CO)[C@@H]([C@H](C)O)[C@H]2C(=O)N[C@H]2C[C@H]3C[C@@H]([C@@H]2C)C3(C)C)cccc1-c1cc(NC(C)=O)cc(C(=O)N[C@@H](CC(C)C)CN(C)C)c1 [Compound 262]
Ki (Bcl-2): 5 to 9 nM
Ki (Bcl-xL): 1000 to 5000 nM

Compound: COc1c(CN2O[C@@H](CO)[C@@H]([C@H](C)O)[C@H]2C(=O)N[C@H]2C[C@H]3C[C@@H]([C@@H]2C)C3(C)C)cccc1-c1cc(C(=O)N[C@@H](CC(C)C)CN(C)C)cc([N+](=O)[O-])c1 [Compound 263]
Ki (Bcl-2): < 1 nM
Ki (Bcl-xL): < 1000 nM

Compound: COc1c(CN2O[C@@H](CO)[C@@H]([C@H](C)O)[C@H]2C(=O)N[C@H]2C[C@H]3C[C@@H]([C@@H]2C)C3(C)C)cccc1-c1cc(C(=O)N[C@@H](Cc2ccccc2)CN(C)C)cc([N+](=O)[O-])c1 [Compound 264]
Ki (Bcl-2): < 1 nM
Ki (Bcl-xL): < 1000 nM

Compound: COc1c(CN2O[C@@H](CO)[C@@H]([C@H](C)O)[C@H]2C(=O)N[C@H]2C[C@H]3C[C@@H]([C@@H]2C)C3(C)C)cccc1-c1cc(C(=O)N[C@@H](CCc2ccccc2)CN(C)C)cc([N+](=O)[O-])c1 [Compound 265]
Ki (Bcl-2): < 1 nM
Ki (Bcl-xL): < 1000 nM

Compound: CCN(CC)c1cc(C(=O)N[C@@H](CC(C)C)CN(C)C)cc(-c2cccc(CN3O[C@@H](CO)[C@@H]([C@H](C)O)[C@H]3C(=O)N[C@H]3C[C@H]4C[C@@H]([C@@H]3C)C4(C)C)c2OC)c1 [Compound 267]
Ki (Bcl-2): < 1 nM
Ki (Bcl-xL): 1000 to 5000 nM

The remaining lines, values ahead:

Ki (Bcl-2): 1 to 5 nM
Ki (Bcl-xL): 1000 to 5000 nM
Compound: COc1c(CN2O[C@@H](CO)[C@@H]([C@H](C)O)[C@H]2C(=O)N[C@H]2C[C@H]3C[C@@H]([C@@H]2C)C3(C)C)cccc1-c1cc(C(=O)N[C@@H](CC(C)C)CN(C)C)cc(N2CCCCC2)c1 [Compound 268]

Ki (Bcl-2): < 1 nM
Ki (Bcl-xL): < 1000 nM
Compound: CCNc1cc(C(=O)N[C@@H](CC(C)C)CN(C)C)cc(-c2cccc(CN3O[C@@H](CO)[C@@H]([C@H](C)O)[C@H]3C(=O)N[C@H]3C[C@H]4C[C@@H]([C@@H]3C)C4(C)C)c2OC)c1 [Compound 269]

Ki (Bcl-2): 1 to 5 nM
Ki (Bcl-xL): 1000 to 5000 nM
Compound: COc1c(CN2O[C@@H](CO)[C@@H]([C@H](C)O)[C@H]2C(=O)N[C@H]2C[C@H]3C[C@@H]([C@@H]2C)C3(C)C)cccc1-c1cc(NCC(C)C)cc(C(=O)N[C@@H](CC(C)C)CN(C)C)c1 [Compound 270]

Ki (Bcl-2): < 1 nM
Ki (Bcl-xL): < 1000 nM
Compound: COc1c(CN2O[C@@H](CO)[C@@H]([C@H](C)O)[C@H]2C(=O)N[C@H]2C[C@H]3C[C@@H]([C@@H]2C)C3(C)C)cccc1-c1cc(C(=O)N[C@@H](CC(C)C)CN(C)C)cc(N(C)CC(C)C)c1 [Compound 271]

Ki (Bcl-2): < 1 nM
Ki (Bcl-xL): 1000 to 5000 nM
Compound: COc1c(CN2O[C@@H](CN)[C@@H]([C@H](C)O)[C@H]2C(=O)N[C@H]2C[C@H]3C[C@@H]([C@@H]2C)C3(C)C)cccc1-c1cc(C(=O)N[C@H](CN(C)C)[C@H](O)c2ccccc2)cc(N(C)C)c1 [Compound 272]

Ki (Bcl-2): < 1 nM
Ki (Bcl-xL): 1000 to 5000 nM
Compound: COc1c(-c2cc(C(=O)N[C@@H](Cc3ccccc3)CN(C)C)cc(N(C)C)c2)ccc(Cl)c1CN1O[C@@H](CO)[C@@H]([C@H](C)O)[C@H]1C(=O)N[C@H]1C[C@H]2C[C@@H]([C@@H]1C)C2(C)C [Compound 274]

Ki (Bcl-2): < 1 nM
Ki (Bcl-xL): < 1000 nM
Compound: COc1c(CN2O[C@@H](CO)[C@@H]([C@H](C)O)[C@H]2C(=O)N[C@H]2C[C@H]3C[C@@H]([C@@H]2C)C3(C)C)cccc1-c1cc(C(=O)N[C@@H](Cc2ccccc2)CN(C)C)cc(N(C)CCO)c1 [Compound 285]

Ki (Bcl-2): < 1 nM
Ki (Bcl-xL): < 1000 nM
Compound: COc1c(CN2O[C@@H](CO)[C@@H]([C@H](C)O)[C@H]2C(=O)N[C@H]2C[C@H]3C[C@@H]([C@@H]2C)C3(C)C)cccc1-c1cc(C(=O)N[C@H](CN(C)C)[C@@H](NS(C)(=O)=O)c2ccccc2)cc(N(C)CCO)c1 [Compound 290]

Ki (Bcl-2): < 1 nM
Ki (Bcl-xL): < 1000 nM
Compound: COc1c(CN2O[C@@H](CO)[C@@H]([C@H](C)O)[C@H]2C(=O)N[C@H]2C[C@H]3CC([C@@H]2C)C3(C)C)cccc1-c1cc(C(=O)N[C@@H](Cc2ccccc2)CN(C)C)cc(N2CCC[C@@H]2CO)c1 [Compound 296]

Ki (Bcl-2): < 1 nM
Ki (Bcl-xL): < 1000 nM
Compound: COc1c(CN2O[C@@H](CO)[C@@H]([C@H](C)O)[C@H]2C(=O)N[C@H]2C[C@H]3C[C@@H]([C@@H]2C)C3(C)C)cccc1-c1cc(C(C)=O)cc(C(=O)N[C@@H](Cc2ccccc2)CN(C)C)c1 [Compound 299]

Ki (Bcl-2): < 1 nM
Ki (Bcl-xL): 1000 to 5000 nM
Compound: COc1c(CN2O[C@@H](CN)[C@@H]([C@H](C)O)[C@H]2C(=O)N[C@H]2C[C@H]3C[C@@H]([C@@H]2C)C3(C)C)cccc1-c1cc(C(=O)N[C@@H](Cc2ccccc2)CN(C)C)cc(N(C)CCO)c1 [Compound 302]

Ki (Bcl-2): < 1 nM
Ki (Bcl-xL): < 1000 nM
Compound: COc1c(CN2O[C@@H](CO)[C@@H]([C@H](C)O)[C@H]2C(=O)N[C@H]2C[C@H]3C[C@@H]([C@@H]2C)C3(C)C)cccc1-c1cc(C(=O)N[C@@H](Cc2ccccc2)CN(C)C)cc(N(C)CC(=O)O)c1 [Compound 306]

Ki (Bcl-2): < 1 nM
Ki (Bcl-xL): < 1000 nM
Compound: COc1c(CN2O[C@@H](CO)[C@@H]([C@H](C)O)[C@H]2C(=O)N[C@H]2C[C@H]3C[C@@H]([C@@H]2C)C3(C)C)cccc1-c1cc(C(=O)N[C@@H](Cc2ccccc2)CN(C)C)cc(N(C)CC(=O)N(C)C)c1 [Compound 308]
